According to the supplement of paper PMC10307832:

Legend:
Assay in all cases: relative viability (nuclei count vs DMSO), 5 days (fraction); higher = more cells survive
Dabrafenib + Palbociclib = compound: CC(C)(C)c1nc(-c2cccc(NS(=O)(=O)c3c(F)cccc3F)c2F)c(-c2ccnc(N)n2)s1 [Dabrafenib] + CC(=O)c1c(C)c2cnc(Nc3ccc(N4CCNCC4)cn3)nc2n(C2CCCC2)c1=O [Palbociclib] (partner 0.5 µM)
Procedure, shortened: (§1)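 The day after seeding in 1536-well plates, lung cancer cell lines were treated by pin tool with a single drug, or with a fixed anchor-drug dose together with five library-drug doses (not always all listed) in √10 steps. After 5 days, a combined fix-and-stain solution (final 0.05% Triton X-100, 1% formaldehyde, 1 ug/ml Hoechst) was added. Nuclei counted on 4× images gave relative viability as treated counts over vehicle counts, reported as the median of duplicate plates.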

VX-702 + Olaparib = compound: NC(=O)c1ccc(N(C(N)=O)c2c(F)cccc2F)nc1-c1ccc(F)cc1F [VX-702] + O=C(c1cc(Cc2n[nH]c(=O)c3ccccc23)ccc1F)N1CCN(C(=O)C2CC2)CC1 [Olaparib] (partner 8 µM)
Procedure, shortened: as §1

VX-702 + Palbociclib = compound: NC(=O)c1ccc(N(C(N)=O)c2c(F)cccc2F)nc1-c1ccc(F)cc1F [VX-702] + CC(=O)c1c(C)c2cnc(Nc3ccc(N4CCNCC4)cn3)nc2n(C2CCCC2)c1=O [Palbociclib] (partner 0.5 µM)
Procedure, shortened: as §1

VX-702 + Pictilisib = compound: NC(=O)c1ccc(N(C(N)=O)c2c(F)cccc2F)nc1-c1ccc(F)cc1F [VX-702] + CS(=O)(=O)N1CCN(Cc2cc3nc(-c4cccc5[nH]ncc45)nc(N4CCOCC4)c3s2)CC1 [Pictilisib] (partner 1 µM)
Procedure, shortened: as §1

Row | Cell Line | relative viability (Dabrafenib + Palbociclib; first compound 0.009487 µM) | relative viability (Dabrafenib + Palbociclib; first compound 0.03 µM) | relative viability (Dabrafenib + Palbociclib; first compound 0.09487 µM) | relative viability (Dabrafenib + Palbociclib; first compound 0.3 µM) | relative viability (VX-702 + Olaparib; first compound 0.02 µM) | relative viability (VX-702 + Olaparib; first compound 0.2 µM) | relative viability (VX-702 + Olaparib; first compound 0.6325 µM) | relative viability (VX-702 + Olaparib; first compound 2 µM) | relative viability (VX-702 + Palbociclib; first compound 0.02 µM) | relative viability (VX-702 + Palbociclib; first compound 0.2 µM) | relative viability (VX-702 + Palbociclib; first compound 0.6325 µM) | relative viability (VX-702 + Palbociclib; first compound 2 µM) | relative viability (VX-702 + Pictilisib; first compound 0.02 µM) | relative viability (VX-702 + Pictilisib; first compound 0.2 µM) | relative viability (VX-702 + Pictilisib; first compound 0.6325 µM) | relative viability (VX-702 + Pictilisib; first compound 2 µM) | relative viability (Dabrafenib + Palbociclib; first compound 0.003 µM)
1 | PC-14 | 0.643 | 0.618 | 0.522 | 0.65 | 0.315 | 0.329 | 0.338 | 0.282 | 0.519 | 0.595 | 0.561 | 0.732 | 0.629 | 0.608 | 0.625 | 0.807 | 
2 | RERF-LC-KJ | 1.09 | 1.13 | 1.02 | 1.13 | 1.01 | 0.854 | 0.921 | 0.901 | 1 | 1.57 | 1.14 | 1.19 | 0.562 | 0.435 | 0.625 | 0.601 | 1.11
3 | ChaGo-K-1 | 0.925 | 0.838 | 0.89 | 0.996 | 0.458 | 0.414 | 0.433 | 0.352 | 0.942 | 0.881 | 0.893 | 0.946 | 0.73 | 0.3 | 0.591 | 1.12 | 0.874
4 | H3255 | 0.313 | 0.343 | 0.313 | 0.333 | 0.578 | 0.53 | 0.558 | 0.594 | 0.304 | 0.317 | 0.318 | 0.315 | 0.553 | 0.48 | 0.462 | 0.479 | 0.288
5 | NCI-H1299 |  |  |  |  | 0.982 | 0.924 | 0.937 | 0.862 |  |  |  |  | 0.802 | 0.65 | 0.554 | 0.547 | 
6 | NCI-H1563 |  |  |  |  |  |  |  |  |  |  |  |  | 0.685 | 0.626 | 0.594 | 0.625 | 
7 | SK-MES-1 | 0.296 | 0.27 | 0.258 | 0.31 | 0.679 | 0.681 | 0.622 | 0.696 | 0.334 | 0.312 | 0.293 | 0.314 | 0.342 | 0.293 | 0.364 | 0.313 | 
8 | NCI-H1648 | 0.215 |  | 0.251 | 0.329 | 0.817 | 0.851 | 0.689 | 0.781 | 0.268 | 0.294 | 0.244 | 0.319 |  |  |  |  | 0.317
9 | NCI-H1755 | 0.425 | 0.435 | 0.411 | 0.415 | 0.911 | 0.897 | 0.799 | 0.876 | 0.494 | 0.388 | 0.453 | 0.422 | 0.395 | 0.389 | 0.409 | 0.486 | 0.429
10 | NCI-H1651 | 0.494 | 0.51 | 0.524 | 0.505 | 0.178 | 0.174 | 0.183 | 0.151 | 0.503 | 0.494 | 0.502 | 0.56 | 0.649 | 0.645 | 0.668 | 0.57 | 0.499
11 | NCI-H23 | 0.575 | 0.465 | 0.455 | 0.634 | 0.372 | 0.254 | 0.329 | 0.402 | 0.492 | 0.443 | 0.544 | 0.559 | 0.506 | 0.424 | 0.464 | 0.652 | 
